Data reported in patent US6319929A, “Suksdorfin analogs, compositions thereof, and methods for making and using thereof” (priority 1998, dated 2001).

Legend:
uninfected H9 cells [1] = assay: Combination study of suksdorfin with AZT, ddI and ddC: toxicity to uninfected H9 cells; assay type: cell-based; settings: Homo sapiens, H9, combinations with 4 μg/ml suksdorfin
Experimental: Pharm. Asso. […] Aliquots ( ml) were placed in wells of 24-well culture plates containing an equal volume of test compound (diluted in the appropriate culture medium). After incubation for 4 days at 37° C., cell density of uninfected cultures was determined by counting cells in a Coulter counter to assess toxicity of the test compound. A p24 antigen ELISA assay was used to determine the level of virus released in the medium of the HIV-infected cultures. The p24 antigen assay uses a HIV-1 anti-p24 specific monoclonal antibody as the capture antibody coated-on 96-well plates. Following a sample incubation period, rabbit serum containing antibodies for HIV-1 p24 is used to tag any p24 "captured" onto the microtiter well surface. […] The cut-off for the p24 ELISA assay is 12. pg/ml. P24 in the culture medium was quantitated against a standard curve containing known amounts of p24. The effective (EC50) and inhibitory (IC50) concentrations (for anti-HIV activity and cytotoxicity, respectively) were determined graphically.
(§1) Combination Study: The experimental design is identical to the growth inhibition assay except that various concentrations of AZT, ddI or ddC were also added to cultures of acutely HIV-1 infected H9 cells that either have or have no received different concentrations of suksdorfin.

[2] = test system: HIV-1 replication in H9 cells; assay: Combination study of suksdorfin with AZT, ddI and ddC: HIV-1 replication in acutely infected H9 cells; assay type: cell-based, HIV-1 (IIIB); settings: for EC50 / IC50: Human immunodeficiency virus 1, H9; for EC50 / IC50 / Therapeutic Index: combinations with 4 μg/ml suksdorfin; for EC50: read-out: EC50; for IC50: concentration which inhibits viral replication by 50%, read-out: IC50 (μM)^b
Experimental: HIV Growth Inhibition Assay: The T cell line, H9, and the promonocytic cell line, U937, were maintained separately in continuous culture with complete medium (RPMI 1640 and […] fetal calf serum (FCS) at 5% CO2 and 37° C. Cell lines were used in experiments only when in log phase of growth; whereas, uninfected peripheral blood mononuclear cells (PBMCs) were first stimulated with PHA (1 μg/ml) for 3 days. All cell targets were incubated with HIV-1 (IIIB isolate, TCID50 10 ^4 IU/mi, at a multiplicity of infection of 0.1-0.01 IU/cell) for 1 hour at 37° C. and 5% CO2. The cell lines and PBMCs were washed thoroughly to remove unabsorbed virions and resuspended at 4×10^5 cells/ml in complete medium or complete medium with 10% v/v interleukin […] IL-2, respectively. Aliquots ( ml) were placed in wells of 24-well culture plates containing an equal volume of test compound (diluted in the appropriate culture medium). After incubation for 4 days at 37° C., cell density of uninfected cultures was determined by counting cells in a Coulter counter to assess toxicity of the test compound. A p24 antigen ELISA assay was used to determine the level of virus released in the medium of the HIV-infected cultures. The p24 antigen assay uses a HIV-1 anti-p24 specific monoclonal antibody as the capture antibody coated-on 96-well plates. Following a sample incubation period, rabbit serum containing antibodies for HIV-1 p24 is used to tag any p24 "captured" onto the microtiter well surface. […] The cut-off for the p24 ELISA assay is 12. pg/ml. P24 in the culture medium was quantitated against a standard curve containing known amounts of p24. […] Both the EC50 and IC50 values were calculated by plotting drug concentration versus percent inhibition, and then identifying a 50% inhibition value from the graph.
as §1, with “suksdorfin. The concentrations of AZT, ddI and ddC were 5 ten-fold dilutions starting at 1 μg/ml. [drawing 104] [drawing 105]” for “suksdorfin.”

uninfected H9 cells [3] = assay: Toxicity to uninfected H9 cells (cell growth); assay type: cell-based; settings: for IC50: Homo sapiens
Experimental: (§2) HIV inhibition assay. The HIV inhibition was measured as described herein. Briefly, H9 cells, a T cell line, (3.5×10^6 cells/ml) were incubated in the presence or absence of HIV-1 (IIIB strain, 0.01-0.1 TCID50 /cell) for 1 hour at 37° C. Cells were washed thoroughly and resuspended at a final concentration of 2×10^5 cells/ml in the presence or absence of compound. After incubation for 3-4 days at 37° C., the cell density of uninfected cultures was determined by cell count to assess toxicity of the drug. An aliquot of each cell-free supernatant was assayed by p24 antigen ELISA to quantitate the amount of HIV-1 present in the infected cultures. Test compounds were considered to be active at a particular concentration if p24 antigen levels were less than 70% of infected, untreated controls and were nontoxic to uninfected H9 cells.
(§3) HIV Growth Inhibition Assay: The T cell line, H9, and the promonocytic cell line, U937, were maintained separately in continuous culture with complete medium (RPMI 1640 and […] fetal calf serum (FCS) at 5% CO2 and 37° C. Cell lines were used in experiments only when in log phase of growth; whereas, uninfected peripheral blood mononuclear cells (PBMCs) were first stimulated with PHA (1 μg/ml) for 3 days. All cell targets were incubated with HIV-1 (IIIB isolate, TCID50 10 ^4 IU/mi, at a multiplicity of infection of 0.1-0.01 IU/cell) for 1 hour at 37° C. and 5% CO2. The cell lines and PBMCs were washed thoroughly to remove unabsorbed virions and resuspended at 4×10^5 cells/ml in complete medium or complete medium with 10% v/v interleukin […] IL-2, respectively. Aliquots ( ml) were placed in wells of 24-well culture plates containing an equal volume of test compound (diluted in the appropriate culture medium). After incubation for 4 days at 37° C., cell density of uninfected cultures was determined by counting cells in a Coulter counter to assess toxicity of the test compound. A p24 antigen ELISA assay was used to determine the level of virus released in the medium of the HIV-infected cultures. The p24 antigen assay uses a HIV-1 anti-p24 specific monoclonal antibody as the capture antibody coated-on 96-well plates. Following a sample incubation period, rabbit serum containing antibodies for HIV-1 p24 is used to tag any p24 "captured" onto the microtiter well surface. Peroxidase conjugated goat anti-rabbit serum is then used to tag HIV-1 p24 specific rabbit antibodies which have complexed with captured p24. […] The cut-off for the p24 ELISA assay is 12. pg/ml. P24 in the culture medium was quantitated against a standard curve containing known amounts of p24. The effective (EC50) and inhibitory (IC50) concentrations (for anti-HIV activity and cytotoxicity, respectively) were determined graphically. Both the EC50 and IC50 values were calculated by plotting drug concentration versus percent inhibition, and then identifying a 50% inhibition value from the graph.

[4] = test system: HIV-1 replication in H9 cells; assay: HIV-1 replication inhibition in acutely infected H9 lymphocytes (p24 antigen ELISA); assay type: cell-based, HIV-1 (IIIB strain); settings: for anti-HIV activity in H9 cells (in words): acutely infected H9 cells
Experimental: as §2, §3

[5] = Table 16, concentration which inhibits uninfected cell growth by 50%, read-out: IC50 (μM)^a
[6] = IC50 for cell growth inhibition divided by EC50 for HIV inhibition, H9

Row | Structure (SMILES) | IC50 (uninfected H9 cells [1]; Table 5, read-out: IC50) [µg/mL] | IC50 (uninfected H9 cells [1]; [5]) [µg/mL] | EC50 ([2]; Table 5) [µg/mL] | IC50 ([2]; Table 16) [µg/mL] | Therapeutic Index ([2]; Table 5) | Therapeutic Index ([2]; Table 16) | decrease of EC50 in presence of suksdorfin ([2]; with 4 μg/ml suksdorfin, H9) [fold] | Therapeutic Index [4, 6] | anti-HIV activity in H9 cells (in words) [4] | also measured
1 | Nc1ccn([C@H]2CC[C@@H](CO)O2)c(=O)n1 [ddC, dideoxycytidine] | > 1 | > 1 | 0.004 | 0.004 | > 250 | > 250 | 40 |  |  | 
2 | CC1(C)Oc2ccc3ccc(=O)oc3c2[C@H](OC(=O)[C@@]23CC[C@@](C)(C(=O)O2)C3(C)C)[C@@H]1OC(=O)[C@@]12CC[C@@](C)(C(=O)O1)C2(C)C [Compound 17, 3',4'-Di-O-(-)-Camphanoyl-(-)-cis-Khellactone] |  |  |  |  |  |  |  | > 1.3 | much less activity than that of compound 16 | IC50 (uninfected H9 cells [3]; H9, Table 3, H9 lymphocytes, read-out: IC50): 1700 µM; IC50 (uninfected H9 cells [3]; H9, Table 17, uninfected H9 cell growth, read-out: IC50): 1700 µM; EC50 ([4]; Human immunodeficiency virus 1, H9, Table 3, H9 lymphocytes, read-out: EC50): 51 µM; EC50 ([4]; Human immunodeficiency virus 1, H9, Table 17, acutely infected H9 lymphocytes, read-out: EC50): 51 µM; Therapeutic Index ([4]; Table 3, H9 lymphocytes): > 33.3; Therapeutic Index ([4]; Table 17, H9): > 33.3; anti-HIV activity in H9 cells (in words) ([4]; listed as 3): much less anti-HIV activity than 2
3 | C/C=C(/C)C(=O)O[C@@H]1c2c(ccc3ccc(=O)oc23)OC(C)(C)[C@@H]1OC(C)=O [Pteryxin, pteryxin, reference compound] |  |  |  |  |  |  |  | > 3.7 | slightly reduced anti-HIV-l activity | increase of toxicity on replacing 4'-isovaleryl by angeloyl (versus suksdorfin) (uninfected H9 cells [3]; H9 cells): 5 fold; IC50 (uninfected H9 cells [3]; H9, concentration which inhibits uninfected cell growth by 50%): > 10.4 µM; IC50 (uninfected H9 cells [3]; H9, read-out: IC50 (μM)^a, Table 14, concentration which inhibits uninfected cell growth by 50%): > 10.4 µM; EC50 ([4]; Human immunodeficiency virus 1, H9, acutely infected H9 cells, concentration which inhibits viral replication by 50%, Inactive = No suppression of HIV-1 replication in H9 cells): 4.6 µM; IC50 ([4]; Human immunodeficiency virus 1, H9, read-out: IC50 (μM)^b): 4.6 µM; Therapeutic Index ([4]; Table 14): > 3.7; anti-HIV activity in H9 cells (in words) ([4]; listed as pteryxn): slightly reduced anti-HIV-1 activity
4 | O=c1[nH]cnc2c1ncn2[C@H]1CC[C@@H](CO)O1 [ddI] | > 1 | > 1 | 0.4 | 0.4 | > 2.5 | > 2.5 | 4000 | > 400 |  | reduction of amount of nucleoside needed in presence of suksdorfin ([2]; with 4 μg/ml suksdorfin, H9): 4000 fold
